Results: patent publication US12012386B2, “Olaparib oxalic acid cocrystals and their pharmaceutical use” (NUFORMIX TECHNOLOGIES LIMITED, priority 2020, dated 2024)
Values after ≈ are worked out from the molar mass of the structure shown. “Also recorded” adds a separate entry of the source.

How the values were obtained:
[1] = Solid-state stability study, accelerated conditions (40° C./75% RH, 4 months); format: physicochemical; settings: for stability to polymorph conversion or hydrate formation on long storage (summary of Tables 4 and 5): 4 months accelerated conditions and 6 months ambient conditions; for Appearance / XRPD analysis: 40° C./75% RH - 4 months, sealed container
Protocol: A study was carried out to examine the physical stability of the olaparib oxalic acid cocrystals with respect to solid form conversion or signs of decomposition over time under both ambient and accelerated conditions. 50 mg each of the 2:3 olaparib oxalic acid cocrystal, 1:1 olaparib oxalic acid cocrystal, and 2:1 olaparib oxalic acid cocrystal were separately placed in a sealed container at 40° C. and 75% relative humidity and stored under these conditions for 4 months. After this time, all samples remained as white solids with no signs of deliquescence.

[2] = Solid-state stability study, ambient conditions (6 months); format: physicochemical; settings: clear glass vial
Protocol: A second stability study was carried out where 50 mg each of the 2:3 olaparib oxalic acid cocrystal, 1:1 olaparib oxalic acid cocrystal, and 2:1 olaparib oxalic acid cocrystal were separately placed in a clear glass vial which was then stored under ambient conditions for 6 months. After this time, all the cocrystals remained as white solids with no signs of colour change.

[3] = Dissolution study in simulated intestinal fluid (FaSSIF V2); format: physicochemical; settings: from four minutes onwards; 50 ml FaSSIF V2, pH 6.5, 37° C.; FIG. 12
From the text: For BCS class IV drugs, such as olaparib, where both solubility and permeability are limited, the rate of dissolution of the drug form used can be the controlling factor in the overall absorption and thus the bioavailability of a drug. This becomes even more influential as the dose of a drug increases. Given the high dose of olaparib needed in its current marketed indications it is likely that a high dose may be needed for use in alternative conditions, thus finding a crystalline form of olaparib that has a high dissolution rate is important. A study was, therefore, carried out to examine the rate of dissolution of the 2:3 olaparib oxalic acid cocrystal, 1:1 olaparib oxalic acid cocrystal, and 2:1 olaparib oxalic acid compared with the 1:1 olaparib urea cocrystal of CN 105753789 and the pure crystalline olaparib form A. The dissolution study was carried out using 50 ml simulated intestinal fluid (FaSSIF V2) at pH 6.5 (37° C.) using a quantity of each olaparib form equivalent to 25 mg olaparib. […] Detection and quantification of olaparib was performed by in-situ UV-spectroscopy using a fibre-optic probe, allowing instantaneous data collection from the point of sample introduction. UV absorption data was converted to mg/ml (±0.2 mg/ml) using a previously determined pH dependent molar extinction coefficients to quantitate the amount of dissolved drug.

[4] = Gravimetric Vapour Sorption (GVS) analysis; format: physicochemical; settings: for polymorphic form conversion or hydrate formation under raised relative humidity levels: GVS; for moisture reversibly adsorbed (GVS): across the 0-90% relative humidity range at 25° C. under nitrogen; for XRPD analysis post GVS analysis: at both 0% RH and 90% RH
Protocol: Gravimetric Vapor Isotherm (GVS) Analysis: Sorption isotherms were obtained using a Hiden Isochema moisture sorption analyser (model IGAsorp), controlled by IGAsorp Systems Software V6.50.48. The sample was maintained at a constant temperature (25° C.) by the instrument controls. The humidity was controlled by mixing streams of dry and wet nitrogen, with a total flow of 250 ml·min^−1. The instrument was verified for relative humidity content by measuring three calibrated Rotronic salt solutions (10-50-88%). The weight change of the sample was monitored as a function of humidity by a microbalance (accuracy +/−0.005 mg). A defined amount of sample was placed in a tared mesh stainless steel basket under ambient conditions. The sample was held at 50% RH for ˜60 minutes and then the initial desorption cycle was initiated. A full experimental cycle typically consisted of three scans (desorption, sorption and desorption) at a constant temperature (25° C.) and 10% RH intervals over a 0-90% range (60 minutes for each humidity level). Data analysis was performed in Microsoft Excel. […] XRPD analysis at both 0% RH and 90% RH post GVS analysis confirmed that the cocrystal was unchanged. […]

[5] = EMA/CHMP/789139/2014; low solubility and low permeability; cited from earlier work
[6] = pH independent; cited from earlier work

Row | Appearance [1] | XRPD analysis [1] | Appearance [2] | XRPD analysis [2] | moisture reversibly adsorbed (GVS) [4] [% w/w] | XRPD analysis post GVS analysis [4] | Compound | stability to polymorph conversion or hydrate formation on long storage (summary of Tables 4 and 5) [1] | polymorphic form conversion or hydrate formation under raised relative humidity levels ([4]; 0-90% RH, 25° C.) | other results
1 | No change | No change | No change | No change | 0.59 | unchanged | O=C(O)C(=O)O.O=C(c1cc(Cc2n[nH]c(=O)c3ccccc23)ccc1F)N1CCN(C(=O)C2CC2)CC1.O=C(c1cc(Cc2n[nH]c(=O)c3ccccc23)ccc1F)N1CCN(C(=O)C2CC2)CC1 [2:1 olaparib oxalic acid cocrystal] | stable to polymorph conversion or hydrate formation | does not show any polymorphic form conversion or hydrate formation | 
2 | No change | No change |  |  | 0.23 | unchanged | O=C(O)C(=O)O.O=C(O)C(=O)O.O=C(O)C(=O)O.O=C(c1cc(Cc2n[nH]c(=O)c3ccccc23)ccc1F)N1CCN(C(=O)C2CC2)CC1.O=C(c1cc(Cc2n[nH]c(=O)c3ccccc23)ccc1F)N1CCN(C(=O)C2CC2)CC1 [2:3 olaparib oxalic acid cocrystal] | stable to polymorph conversion or hydrate formation | does not show any polymorphic form conversion or hydrate formation | hygroscopicity ([4]; 0-90% RH, 25° C.): not hygroscopic

More lines, now with the values behind:

Row | Compound | Appearance [1] | XRPD analysis [1] | Appearance [2] | XRPD analysis [2] | moisture reversibly adsorbed (GVS) [4] [% w/w] | XRPD analysis post GVS analysis [4] | stability to polymorph conversion or hydrate formation on long storage (summary of Tables 4 and 5) [1] | polymorphic form conversion or hydrate formation under raised relative humidity levels ([4]; 0-90% RH, 25° C.) | other results
3 | O=C(O)C(=O)O.O=C(c1cc(Cc2n[nH]c(=O)c3ccccc23)ccc1F)N1CCN(C(=O)C2CC2)CC1 [1:1 olaparib oxalic acid cocrystal] | No change | No change | No change | No change |  |  | stable to polymorph conversion or hydrate formation |  | 
4 | NC(N)=O.O=C(c1cc(Cc2n[nH]c(=O)c3ccccc23)ccc1F)N1CCN(C(=O)C2CC2)CC1 [1:1 olaparib urea cocrystal] |  |  |  |  |  |  |  |  | level of dissolution compared with pure crystalline olaparib form A [3]: only achieves the same level of dissolution as pure crystalline olaparib form A
5 | O=C(c1cc(Cc2n[nH]c(=O)c3ccccc23)ccc1F)N1CCN(C(=O)C2CC2)CC1 [olaparib, 4-[(3-{[4-(cyclopropylcarbonyl)piperazin-1-yl]carbonyl}-4-fluorophenyl)methyl]phthalazin-1(2H)-one] |  |  |  |  |  |  |  |  | BCS class [5]: class IV; also recorded: class 4
6 | O=C(c1cc(Cc2n[nH]c(=O)c3ccccc23)ccc1F)N1CCN(C(=O)C2CC2)CC1 [polymorph A] |  |  |  |  |  |  |  |  | aqueous solubility [6]: ~100 µg/mL (≈ 230 µM)
